In patent US11578078B2, “Heterocyclic RIP1 inhibitory compounds” (Rigel Pharmaceuticals, Inc., priority 2019, dated 2023):

Assay: in vivo pharmacokinetics, plasma and brain exposure
Set-up: species or system rodents

Row | SMILES | BRAIN AUC0-6 (brain) | PLASMA CI | Kp (rodents, brain AUC0-6 / plasma AUC0-6, read-out: Ratio (Brain/Plasma)) | Ratio (Brain/Plasma) (brain AUC0-6 / plasma AUC0-6)
1 | CN1C(=O)[C@@H](NC(=O)c2nn(Cc3ccccc3)cc2F)COc2ccc(N3CC4(CCOCC4)C3)cc21 [Compound I-2, (S)-1-benzyl-4-fluoro-N-(5-methyl-4-oxo-7-(7-oxa-2-azaspiro[3.5]nonan-2-yl)-2,3,4,5-tetrahydrobenzo[b][1,4]oxazepin-3-yl)-1H-pyrazole-3-carboxamide] | 157 | 57.7 | 0.56 | –
2 | CN1C(=O)[C@@H](NC(=O)n2cc(Cc3ccc(F)cc3)cn2)COc2ccc(N3CC4(CCOCC4)C3)cc21 [Compound I-3, (S)-4-(4-fluorobenzyl)-N-(5-methyl-4-oxo-7-(7-oxa-2-azaspiro[3.5]nonan-2-yl)-2,3,4,5-tetrahydrobenzo[b][1,4]oxazepin-3-yl)-1H-pyrazole-1-carboxamide] | – | 19.0 | – | 0.93
3 | CN1C(=O)[C@@H](NC(=O)c2nn(Cc3ccccc3)cc2F)COc2ccc(N3CCC4(CCOCC4)C3)cc21 [Compound I-1, (S)-1-benzyl-4-fluoro-N-(5-methyl-4-oxo-7-(8-oxa-2-azaspiro[4.5]decan-2-yl)-2,3,4,5-tetrahydrobenzo[b][1,4]oxazepin-3-yl)-1H-pyrazole-3-carboxamide] | – | 16.4 | – | 0.46
